Source: patent publication US20240076609A1, “COMPOSITIONS AND METHODS FOR CULTURING AND EXPANDING CELLS” (LIFE TECHNOLOGIES CORPORATION, priority 2017, published 2024)
Several values for one entry are separate records, joined by “and”; a condition that tells them apart may be missing. Identical values can stand only once.

Assays:
Pan CD3+ T cells = assay: T cell expansion with 2-DG titration (population doublings); assay type: cell-based, human
Procedure: 2-Deoxy-D-Glucose Preparation: 2-Deoxy-D-Glucose (2-DG, 164.16 g/mol) was manufactured by (Acros Organics, cat. no. 111980-250). The 2-DG solution was prepared in sterile filtered water at a stock concentration of 100 mM, then aliquoted in Eppendorf tubes at a final volume of 1 mL in each tube. Cell Culture: T cell isolation: De-identified, frozen apheresis bags from normal donors were obtained from HemaCare Corp. Van Nuys, CA 91406. T cells were negatively isolated from PBMCs with the DYNABEADS® […] Human T Cells kit (Thermo Fisher Scientific, Cat. No. 11344D). T cell activation and expansion: T cells (seeding density 1×10^6 vc/mL) were activated with DYNABEADS® Human T-Expander CD3/CD28 (Thermo Fisher Scientific, Cat. No. 11141D) at a ratio of 3 beads per T cell and cultured in serum-free medium, animal origin free medium. T cells were counted on days 5, 7, 10, and 12 on a Vi-CELL XR analyzer (Beckman Coulter, Indianapolis IN) and fed with or without 2-DG (0.25 mM, 0.5 mM, 1 mM, 2 mM, and 4 mM) and 5% human AB serum to a density of 5×10^5 vc/mL on days 3, 5, and 7 and 1×10^6 vc/mL on day 10. 2-Deoxy-D-Glucose Preparation: 2-Deoxy-D-Glucose (2-DG, 164.16 g/mol) is manufactured by Acros Organics (part of Thermo Fisher Scientific). The 2-DG solution was prepared in sterile filtered water at a stock concentration of 100 mM, then aliquoted in Eppendorf tubes at a final volume of 1 mL in each tube. Cell Culture: T cell isolation: De-identified, frozen apheresis bags from normal donors were obtained from HemaCare. T cells were negatively isolated from PBMCs with the DYNABEADS® […] Human T Cells kit (Thermo Fisher Scientific, Cat. No. 11344D). T cell activation and expansion: T cells (seeding density 1×10^6 vc/mL) were activated with DYNABEADS® Human T-Expander CD3/CD28 (Thermo Fisher Scientific, Cat. No. 11141D) at a ratio of 3 beads per T cell and cultured in serum-free medium, animal origin free medium. T cells were counted on days 5, 7, 10, and 12 on a Vi-CELL XR analyzer (Beckman Coulter, Indianapolis IN) and fed with or without 2-DG (0.25 mM, 0.5 mM, 1 mM, 2 mM, and 4 mM) and 5% human AB serum to a density of 5×10^5 vc/mL on days 3, 5, and 7 and 1×10^6 vc/mL on day 10.

Primary human T cells = assay: CD8+/CD4+ phenotype with 2-DG and CD Lipid Concentrate 1 or 2; assay type: cell-based
Procedure: FIGS. 48 and 49 represent the data from Tables 42 and 43 which depicts the gating strategy for differentiation phenotyping. T cells expanded for 10 days were stained with antibodies against CD3, CD4, and CD8. Flow cytometric analysis was performed in a Beckman-Coulter Gallios analyzer.
Phenotype: Primary human T cells were expanded for 10 days with and without 2-DG and 5% human AB serum. DYNABEADS® were removed from 2×10^6 cells by magnetic separation. Surface staining was performed with antibodies against CD3 (Invitrogen, Cat. No. CD0329), CD4 (Molecular Probes, Cat. No. A15858), CD8 (Invitrogen, Cat. No. MHCD0828). Flow cytometric analysis was performed on a Gallios flow cytometer and Kaluza software (Beckman Coulter, Indianapolis IN).
FIGS. 48 and 49 represent the fold increase in CD8:CD4 ratio compared to day 0.

Naïve T cells = assay: CD8+/CD4+ phenotype after 10 days with 2-DG in naïve T cells; assay type: cell-based, human; conditions: 4 mM 2-DG
Procedure: For some studies, CD8+ and CD4+ T cells were isolated from PBMCs by negative selection using Untouched Human CD8+ and CD4+ T Cells Kits. Naïve and non-naïve T cells were isolated from enriched T cells by positive selection using CD45RA nanobeads (Miltenyi). Phenotype: Primary human T cells were expanded for 10 days with and without 2-DG and 5% human AB serum. DYNABEADS® were removed from 2×10^6 cells by magnetic separation. Surface staining was performed with antibodies against CD3 (Invitrogen, Cat. No. CD0329), CD4 (Molecular Probes, Cat. No. A15858), CD8 (Invitrogen, Cat. No. MHCD0828). Flow cytometric analysis was performed on a Gallios flow cytometer and Kaluza software (Beckman Coulter, Indianapolis IN). For some studies, CD8+ and CD4+ T cells were isolated from PBMCs by negative selection using Untouched Human CD8+ and CD4+ T Cells Kits. Naïve and non-naïve T cells were isolated from enriched T cells by positive selection using CD45RA nanobeads (Miltenyi). Phenotype: Primary human T cells were expanded for 10 days with and without 2-DG and 5% human AB serum. DYNABEADS® were removed from 2×10^6 cells by magnetic separation. Surface staining was performed with antibodies against CD3 (Invitrogen, Cat. No. CD0329), CD4 (Molecular Probes, Cat. No. A15858), CD8 (Invitrogen, Cat. No. MHCD0828). Flow cytometric analysis was performed on a Gallios flow cytometer and Kaluza software (Beckman Coulter, Indianapolis IN).

## O=CC[C@@H](O)[C@H](O)[C@H](O)CO [2-DG, 2-Deoxy-D-Glucose]
Pan CD3+ T cells; 0.25 mM 2-DG, day 5, Table 12
  Cultured T Cell Population Doublings: 1.79
Pan CD3+ T cells; 0.25 mM 2-DG, day 5, single values, Table 31
  Cultured T Cell Population Doublings: 1.44 and 1.64 and 1.57
Pan CD3+ T cells; 0.25 mM 2-DG, day 7, Table 12
  Cultured T Cell Population Doublings: 3.67
Pan CD3+ T cells; 0.25 mM 2-DG, day 7, single values, Table 31
  Cultured T Cell Population Doublings: 3.40 and 3.54 and 3.35
Pan CD3+ T cells; 0.25 mM 2-DG, day 10, Table 12
  Cultured T Cell Population Doublings: 6.20
Pan CD3+ T cells; 0.25 mM 2-DG, day 10, single values, Table 31
  Cultured T Cell Population Doublings: 4.85 and 5.70 and 5.81
Pan CD3+ T cells; 0.25 mM 2-DG, day 12, Table 12
  Cultured T Cell Population Doublings: 6.49
Pan CD3+ T cells; 0.25 mM 2-DG, day 12, single values, Table 31
  Cultured T Cell Population Doublings: 5.72 and 6.57 and 6.47
Pan CD3+ T cells; 0.5 mM 2-DG, day 5, Table 12
  Cultured T Cell Population Doublings: 1.81
Pan CD3+ T cells; 0.5 mM 2-DG, day 5, single values, Table 31
  Cultured T Cell Population Doublings: 1.40 and 1.69 and 1.04
Pan CD3+ T cells; 0.5 mM 2-DG, day 7, Table 12
  Cultured T Cell Population Doublings: 4.17
Pan CD3+ T cells; 0.5 mM 2-DG, day 7, single values, Table 31
  Cultured T Cell Population Doublings: 3.95 and 3.32 and 3.33
Pan CD3+ T cells; 0.5 mM 2-DG, day 10, Table 12
  Cultured T Cell Population Doublings: 6.07
Pan CD3+ T cells; 0.5 mM 2-DG, day 10, single values, Table 31
  Cultured T Cell Population Doublings: 5.06 and 6.28 and 6.75
Pan CD3+ T cells; 0.5 mM 2-DG, day 12, Table 12
  Cultured T Cell Population Doublings: 6.16
Pan CD3+ T cells; 0.5 mM 2-DG, day 12, single values, Table 31
  Cultured T Cell Population Doublings: 6.13 and 6.22 and 6.48
Pan CD3+ T cells; 1 mM 2-DG, day 5, Table 12
  Cultured T Cell Population Doublings: 1.15
Pan CD3+ T cells; 1 mM 2-DG, day 5, Table 25
  Cultured T Cell Population Doublings: 2.08
Pan CD3+ T cells; 1 mM 2-DG, day 7, Table 12
  Cultured T Cell Population Doublings: 3.40
Pan CD3+ T cells; 1 mM 2-DG, day 7, Table 25
  Cultured T Cell Population Doublings: 3.87
Pan CD3+ T cells; 1 mM 2-DG, day 10, Table 12
  Cultured T Cell Population Doublings: 4.93
Pan CD3+ T cells; 1 mM 2-DG, day 10, Table 25
  Cultured T Cell Population Doublings: 7.19
Pan CD3+ T cells; 1 mM 2-DG, day 12, Table 12
  Cultured T Cell Population Doublings: 4.60
Pan CD3+ T cells; 1 mM 2-DG, day 12, Table 25
  Cultured T Cell Population Doublings: 7.00
Pan CD3+ T cells; 2 mM 2-DG, day 5, Table 12
  Cultured T Cell Population Doublings: 0.15
Pan CD3+ T cells; 2 mM 2-DG, day 5, Table 25
  Cultured T Cell Population Doublings: 1.87
Pan CD3+ T cells; 2 mM 2-DG, day 7, Table 12
  Cultured T Cell Population Doublings: 1.33
Pan CD3+ T cells; 2 mM 2-DG, day 7, Table 25
  Cultured T Cell Population Doublings: 3.53
Pan CD3+ T cells; 2 mM 2-DG, day 10, Table 12
  Cultured T Cell Population Doublings: 3.29
Pan CD3+ T cells; 2 mM 2-DG, day 10, Table 25
  Cultured T Cell Population Doublings: 7.10
Pan CD3+ T cells; 2 mM 2-DG, day 12, Table 12
  Cultured T Cell Population Doublings: 2.44
Pan CD3+ T cells; 2 mM 2-DG, day 12, Table 25
  Cultured T Cell Population Doublings: 6.90
Pan CD3+ T cells; 4 mM 2-DG
  population doublings: about 6 population doublings
Pan CD3+ T cells; 4 mM 2-DG, day 5, Table 12
  Cultured T Cell Population Doublings: 2.24
Pan CD3+ T cells; 4 mM 2-DG, day 5, Table 25
  Cultured T Cell Population Doublings: 1.92
Pan CD3+ T cells; 4 mM 2-DG, day 7, Table 12
  Cultured T Cell Population Doublings: 3.84
Pan CD3+ T cells; 4 mM 2-DG, day 7, Table 25
  Cultured T Cell Population Doublings: 3.95
Pan CD3+ T cells; 4 mM 2-DG, day 10, Table 12
  Cultured T Cell Population Doublings: 6.78
Pan CD3+ T cells; 4 mM 2-DG, day 10, Table 25
  Cultured T Cell Population Doublings: 7.50
Pan CD3+ T cells; 4 mM 2-DG, day 12, Table 12
  Cultured T Cell Population Doublings: 6.63
Pan CD3+ T cells; 4 mM 2-DG, day 12, Table 25
  Cultured T Cell Population Doublings: 7.35
Pan CD3+ T cells; 2-DG at 0.25 mM and 0.5 mM
  expansion compared to control: expansion comparable to control
Pan CD3+ T cells; concentrations tested 0.25-4 mM
  effect of 2-DG supplementation on T cell growth: does not affect T cell growth even with lower concentrations
Primary human T cells; 2-DG with CLC1
  fold increase in CD8:CD4 ratio compared to day 0: 1.6 fold
Primary human T cells; 2-DG with CLC2
  fold increase in CD8:CD4 ratio compared to day 0: 1.4 fold
Naïve T cells; Day 10
  % CD4+ (Avg): 59.69%
  % CD8+ (Avg): 36.66%
  % Ratios (CD8+/CD4+): 2.07
Naïve T cells; Day 10, replicates
  % CD4+: 25.82% and 25.23%
  % CD8+: 52.71% and 53.26%
Naïve T cells; Day 10 vs Day 0
  Fold Increase compared to Baseline: 3.38
